Test results from ChEMBL document CHEMBL1144217, “Design, synthesis and characterization of podocarpate derivatives as openers of BK channels” (Bioorg Med Chem Lett, 2008).

molecular target: Calcium-activated potassium channel subunit alpha-1 (Homo sapiens) (UniProt Q12791); assay: Activation of human BKalpha channel expressed in CHOK1 cells assessed as increase in ionic current at 30 uM relative to control; type: cell-based; conditions: CHO-K1
Sequence (Q12791 whole entry): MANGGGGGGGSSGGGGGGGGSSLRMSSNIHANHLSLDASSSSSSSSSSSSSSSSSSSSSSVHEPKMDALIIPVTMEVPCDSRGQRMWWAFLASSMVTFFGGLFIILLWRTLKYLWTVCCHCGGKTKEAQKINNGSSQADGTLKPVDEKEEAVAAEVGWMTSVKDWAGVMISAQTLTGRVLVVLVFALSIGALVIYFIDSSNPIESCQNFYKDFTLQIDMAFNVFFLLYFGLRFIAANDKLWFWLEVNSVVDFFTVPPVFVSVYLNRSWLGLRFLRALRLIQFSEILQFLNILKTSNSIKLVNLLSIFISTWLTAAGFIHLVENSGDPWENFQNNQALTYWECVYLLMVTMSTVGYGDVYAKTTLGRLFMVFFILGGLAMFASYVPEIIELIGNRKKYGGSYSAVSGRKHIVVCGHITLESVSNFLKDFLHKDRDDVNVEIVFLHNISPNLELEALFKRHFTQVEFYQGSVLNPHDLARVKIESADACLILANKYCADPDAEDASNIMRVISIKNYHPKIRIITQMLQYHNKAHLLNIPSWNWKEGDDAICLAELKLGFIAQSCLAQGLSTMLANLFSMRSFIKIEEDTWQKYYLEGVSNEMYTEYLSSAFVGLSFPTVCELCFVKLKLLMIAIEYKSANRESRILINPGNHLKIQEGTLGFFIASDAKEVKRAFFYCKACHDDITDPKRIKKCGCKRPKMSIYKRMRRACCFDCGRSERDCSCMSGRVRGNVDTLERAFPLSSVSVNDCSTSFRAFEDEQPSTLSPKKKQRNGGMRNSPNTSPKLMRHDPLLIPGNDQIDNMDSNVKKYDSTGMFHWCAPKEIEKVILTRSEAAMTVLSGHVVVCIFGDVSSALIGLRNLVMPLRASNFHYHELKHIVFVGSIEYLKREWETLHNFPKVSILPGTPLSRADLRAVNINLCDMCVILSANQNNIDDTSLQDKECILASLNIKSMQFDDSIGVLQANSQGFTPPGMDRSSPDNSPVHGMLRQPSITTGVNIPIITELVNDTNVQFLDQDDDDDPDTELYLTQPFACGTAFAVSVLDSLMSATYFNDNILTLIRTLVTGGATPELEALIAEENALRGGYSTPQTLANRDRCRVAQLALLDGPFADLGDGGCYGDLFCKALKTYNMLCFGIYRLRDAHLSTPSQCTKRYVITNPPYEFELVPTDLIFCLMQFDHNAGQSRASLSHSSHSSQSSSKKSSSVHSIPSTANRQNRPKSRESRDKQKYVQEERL

| SMILES | Activity [%] |
| --- | --- |
| Cc1ccccc1COc1ccc2c(c1)[C@@]1(C)CCC[C@](C)(C(=O)O)[C@@H]1CC2 | 88.9 |
| C[C@]1(C(=O)O)CCC[C@]2(C)c3cc(OCc4ccc(C#N)cc4)ccc3CC[C@@H]12 | 116 |
| C[C@]1(C(=O)O)CCC[C@]2(C)c3cc(OCCCc4ccccc4)ccc3CC[C@@H]12 | 244 |
| C[C@]1(C(=O)O)CCC[C@]2(C)c3cc(OCc4ccc5ccccc5c4)ccc3CC[C@@H]12 | 122 |
| CCCOc1ccc2c(c1)[C@@]1(C)CCC[C@](C)(C(=O)O)[C@@H]1CC2 | 170 |
| C[C@]1(C(=O)O)CCC[C@]2(C)c3cc(OCCN4CCCCC4)ccc3CC[C@@H]12 | 103 |
| C[C@]1(C(=O)O)CCC[C@]2(C)c3cc(OCCOCc4ccccc4)ccc3CC[C@@H]12 | 124 |
| C[C@]1(C(=O)O)CCC[C@]2(C)c3cc(OCc4ccc(OC(F)(F)F)cc4)ccc3CC[C@@H]12 | 139 |
| CC(C)Oc1ccc2c(c1)[C@@]1(C)CCC[C@](C)(C(=O)O)[C@@H]1CC2 | 134 |
| COc1ccc2c(c1)[C@@]1(C)CCC[C@](C)(C(=O)O)[C@@H]1CC2 | 124 |
| COc1ccc(COc2ccc3c(c2)[C@@]2(C)CCC[C@](C)(C(=O)O)[C@@H]2CC3)cc1 | 109 |
| C[C@]1(C(=O)O)CCC[C@]2(C)c3cc(OCc4ccc(C(F)(F)F)cc4)ccc3CC[C@@H]12 | 185 |
| C[C@]1(C(=O)O)CCC[C@]2(C)c3cc(OCc4ccc(Cl)cc4)ccc3CC[C@@H]12 | 121 |
| C[C@]1(C(=O)O)CCC[C@]2(C)c3cc(OCC4CCCCC4)ccc3CC[C@@H]12 | 124 |
| COC(=O)[C@@]1(C)CCC[C@]2(C)c3cc(O)ccc3CC[C@@H]12 | 118 |
| C=CCOc1ccc2c(c1)[C@@]1(C)CCC[C@](C)(C(=O)O)[C@@H]1CC2 | 148 |
| C[C@]1(C(=O)O)CCC[C@]2(C)c3cc(O)ccc3CC[C@@H]12 | 207 |
| COC(=O)[C@@]1(C)CCC[C@]2(C)c3cc(OCCCc4ccccc4)ccc3CC[C@@H]12 | 116 |
| C[C@]1(C(=O)O)CCC[C@]2(C)c3cc(OCc4ccccc4)ccc3CC[C@@H]12 | 209 |
| Cc1ccc(COc2ccc3c(c2)[C@@]2(C)CCC[C@](C)(C(=O)O)[C@@H]2CC3)cc1 | 151 |
| CC(C)c1ccc(COc2ccc3c(c2)[C@@]2(C)CCC[C@](C)(C(=O)O)[C@@H]2CC3)cc1 | 125 |
| CC(C)(C)c1ccc(COc2ccc3c(c2)[C@@]2(C)CCC[C@](C)(C(=O)O)[C@@H]2CC3)cc1 | 116 |
| Cc1cc(C)cc(COc2ccc3c(c2)[C@@]2(C)CCC[C@](C)(C(=O)O)[C@@H]2CC3)c1 | 130 |
